The source of these data is PubChem BioAssay (NCI).

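Results reflect a 48-hour exposure of cells in 96-well plates to compound at five concentrations. Abbreviation: GI50, concentration required for 50% inhibition of growth. The concentration for full growth arrest is given as TGI.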 *1 amine or outer side, *2 acyl side, *3 side chain or, on linkers, in order; H or OH if unused. Where a SMILES comes first, the peptide text is derived from it. [ ]: non-standard residue; d: D form. ξ: configuration not given here. X21 = CC[C@@H](C)C(N[*:1])C(=O)[*:2]; ξR = N=C(N)NCCCC(N)C(=O)O; ξI = CCC(C)C(N)C(=O)O; ξL = CC(C)CC(N)C(=O)O; ξK = NCCCCC(N)C(=O)O; ξV = CC(C)C(N)C(=O)O; ξA = CC(N)C(=O)O

What all share (assay): NCI tumour cell line growth inhibition, 48 h
For test [1], the system named is NCI/ADR-RES ovarian.
The subject of test [2] is SF-295 CNS.
In test [3] the test system is COLO 205 colon.
For test [4], the system named is HCC-2998 colon.
Test [5] relates to SR leukemia.
Test [6] deals with HOP-92 NSCLC.
Test [7] has as its system 786-0 renal.
Test [8] deals with MOLT-4 leukemia.
Test [9] deals with IGROV1 ovarian.
In test [10] the test system is EKVX NSCLC.

`Cc1[nH]nc2c1N=C(c1ccccc1Cl)c1cc([N+](=O)[O-])ccc1N2`: the GI50 in test [1] was 0.728 µM; in test [2] it was 0.256 µM; in test [3] it was 0.981 µM; in [4], 14.6 µM; in test [5] it was 0.11 µM; in [6], above 18.9 µM. Also, the results for the GI50 in test [7], in [8] and in test [9] were 1.35 µM, 14.8 µM and above 8.07 µM, respectively. Further, the TGI in test [1] was above 25 µM; in [3] it was above 25 µM; in [4], above 25 µM; in test [5] it was above 25 µM; in [6], above 25 µM; in [7], above 17.1 µM. Further, the TGI in test [8] and in [9] was above 25 µM in each case.

Turning to `NC1=Nc2cc(OCCCN3Cc4ccccc4C3)c(OCC3CC3)cc2C12CCCC2`, the GI50 in [1] is 2.91 µM; in test [2], 1.64 µM; in test [3], 1.59 µM; in [4] it was 1.62 µM; in test [5], 1.94 µM; in [6] it was 0.718 µM. Moreover, the GI50 in test [7] is 1.69 µM; in test [10], 3.18 µM; in test [8], 2.17 µM; in test [9], 4.17 µM. Further, the TGI in [1] was 12 µM; in test [2], 3.42 µM; in test [3], 3.29 µM; in test [4] it was 3.08 µM; in test [5] it was 5.02 µM; in [6], 3.14 µM. Further, the TGI in test [7] is 3.77 µM; in test [10], 11.8 µM; in test [8], 6.22 µM; in [9] it was 17.2 µM.

Consider `C/C(=N\N=C(N)N)C(CN(C)C)C(c1ccccc1)c1c(O)c2ccccc2oc1=O` (stereo unspecified), for which the TGI in test [1], in test [2], in test [3], in test [4], in test [5] and in test [6] was above 100 µM in each case. For the same molecule, the TGI in test [7], in test [10], in [8] and in [9] was above 100 µM in each case.

Take `C[C@H](N)C(=O)N1C[C@H](CCCB(O)O)[C@](N)(C(=O)O)C1`: the GI50 in test [1], in test [2], in test [3], in test [4], in test [5] and in [6] was above 100 µM each time. For the same molecule, the GI50 in test [7], in [10], in test [8] and in test [9] was above 100 µM in each case. In addition, the TGI in test [1], in [2], in [3], in test [4], in test [5] and in [6] was above 100 µM in each case. For the same molecule, the TGI in [7], in [10], in test [8] and in [9] was above 100 µM in each case.

Turning to `COc1ccc(OC)c2c(=S)c3ccccc3[nH]c12`, the TGI in test [1], in [2], in test [3], in test [4], in test [5] and in test [6] was above 100 µM throughout. Besides, the TGI is above 100 µM in test [7], above 100 µM in [10], 98.4 µM in test [8] and above 100 µM in test [9].

As to `C=C1C(=O)O[C@H]2[C@H]1CC/C(COC(=O)c1ccccc1)=C\CC[C@@]1(C)O[C@@H]21`, the GI50 is 2.67 µM in test [1]; 3.83 µM in test [2]; 1.37 µM in test [3]; 2.35 µM in test [4]; 0.35 µM in test [5]; 0.984 µM in [6]. Besides, the GI50 in test [7] was 1.46 µM; in [10], 1.85 µM; in [8] it was 2.14 µM; in test [9], 0.787 µM. Besides, the TGI in [1] was determined as 9.05 µM; in test [2] it was 16 µM; in test [3] it was 3.14 µM; in test [4], 4.95 µM; in test [5], 86.8 µM; in [6], 2.61 µM. For the same molecule, the TGI in test [7] is 3.08 µM; in test [10] it was 4.46 µM; in test [8] it was 7.57 µM; in [9], 2.66 µM.

In the case of `CC(C)Nc1ncc2cc(Oc3ccc(F)cc3F)c(=O)n(C)c2n1`, the GI50 was above 25 µM in test [1]; above 25 µM in [2]; above 25 µM in [3]; above 25 µM in [4]; above 25 µM in test [5]; 2.89 µM in [6]. The GI50 in [7], in [8] and in test [9] was above 25 µM in each case. In addition, the TGI in [1] was above 25 µM; in [2] it was above 25 µM; in test [3], above 25 µM; in test [4] it was above 25 µM; in test [5], above 25 µM; in [6], 21.6 µM. In addition, the TGI in test [7], in test [8] and in test [9] was above 25 µM each time.

As to `Cn1c(=O)c(Oc2ccccc2)cc2cnc(NC3CCOCC3)nc21`, the GI50 in test [1], in [2], in [3], in test [4], in [5] and in test [6] was above 25 µM each time. In addition, the GI50 in [7], in test [8] and in test [9] was above 25 µM throughout. For the same molecule, the TGI in test [1], in test [2], in test [3], in [4], in test [5] and in [6] was above 25 µM in each case. In addition, the TGI in test [7], in [8] and in test [9] was above 25 µM in each case.

Turning to `Nc1nc(-c2cccc([N+](=O)[O-])c2)cc(-c2cc(-c3cccc([N+](=O)[O-])c3)nc(N)n2)n1`, the TGI in test [1], in test [2], in [3], in test [4], in [5] and in [6] was above 100 µM in each case. The TGI in [7], in [10], in [8] and in test [9] was above 100 µM in each case.

As for `CCC(C)C1NC(=O)C(CC(C)C)NC(=O)C(C)NC(=O)C(C(C)C)NC(=O)C(CCCCN)NC(=O)C(CC(C)C)NC(=O)C(C(C)C)NC(=O)[C@H](C)NC(=O)C(C(C)CC)NC(=O)C(CCCN=C(N)N)NC(=O)C(CCCCN)NC(=O)C(CCCN=C(N)N)NC(=O)C(CCCCN)NC(=O)C([C@H](C)CC)NC(=O)C(CCCCN)NC1=O` (stereo partly specified) (cyclo(A[ξV][ξL][ξK][ξV][ξA][ξL][ξI][ξK][X21][ξK][ξR][ξK][ξR][ξI])), the GI50 in test [1] was 1.06 µM; in test [2], 1.04 µM; in [3], 1.49 µM; in test [4], 1.83 µM; in [5], 1.48 µM; in test [6], 1.14 µM. The GI50 was 1.62 µM in test [7], 0.61 µM in test [10], 0.752 µM in test [8] and 1.62 µM in test [9]. Further, the TGI is 3.84 µM in test [1]; 2.52 µM in [2]; 3.85 µM in test [3]; 4.22 µM in test [4]; 4.1 µM in test [5]; 2.91 µM in [6]. For the same molecule, the TGI is 3.17 µM in [7], 2.9 µM in test [10], 2.82 µM in test [8] and 4.55 µM in [9].

Turning to `O=[N+]([O-])c1ccc(Cl)cc1N/N=C/c1cccc2cccnc12`, the TGI in test [1] was above 100 µM; in test [2], above 100 µM; in test [3], above 100 µM; in test [4], above 100 µM; in test [5], 38 µM; in [7] it was above 100 µM. The TGI in test [10], in test [8] and in [9] was above 100 µM in each case.

As to `CN1CCN(c2ccc(C(=O)Nc3cc(-c4cccc(NS(=O)(=O)c5ccccc5)c4)[nH]n3)cc2)CC1`, the GI50 in test [1] is above 100 µM; in test [2], 3.69 µM; in test [3], 4.28 µM; in test [4], 11.2 µM; in test [5], 2 µM; in test [6], 2.54 µM. In addition, the values for the GI50 in test [7], in [8] and in test [9] were 4.8 µM, 3 µM and 2.64 µM, respectively. Also, the TGI in test [1] is above 100 µM; in test [2], 20.9 µM; in test [3], 14.1 µM; in test [4], 24.3 µM; in test [5], 5.33 µM; in test [6], 16.2 µM. Further, the TGI is 24.2 µM in test [7], 12.5 µM in test [8] and 21.9 µM in [9].

Regarding `COc1ccc(/C=C/NC=O)cc1`, the TGI in test [1], in test [2], in [3], in test [4], in [5] and in test [7] was above 100 µM throughout. Moreover, the TGI in [10], in test [8] and in [9] was above 100 µM in each case.

For `Cc1nc(C(N)=S)sc1C(=O)C/C(=N/N)C(=O)Nc1ccc(Cl)cc1`, the TGI in test [1], in test [2], in test [4], in [5], in test [7] and in [10] was above 100 µM in each case. In addition, the TGI in test [8] and in [9] was above 100 µM each time.

Regarding `CCCN(CCSSCCNc1nc(N(C)O)nc(N(C)O)n1)c1nc(N(C)O)nc(N(C)O)n1`, the GI50 was 6.48 µM in test [1]; 3.56 µM in test [2]; 2.9 µM in [3]; 4.73 µM in [4]; 2.71 µM in test [5]; 6.1 µM in test [6]. The GI50 was 3.67 µM in test [7], 3.72 µM in [8] and 32.3 µM in test [9]. Besides, the TGI is above 100 µM in [1]; 58.3 µM in [2]; above 100 µM in test [3]; above 100 µM in [4]; above 100 µM in test [5]; above 100 µM in [6]. The TGI in test [7], in [8] and in test [9] was above 100 µM each time.

`CNCCCNCCCN1C(=O)c2ccc3c4c(ccc(c24)C1=O)C(=O)N(CCCNCc1ccccc1OC)C3=O`: the GI50 in test [1] was 12.1 µM; in test [2], 0.894 µM; in test [3], 0.498 µM; in [4] it was 1.93 µM; in test [5], 0.27 µM; in test [6], 2.13 µM. In addition, the GI50 is 1.27 µM in [7], 0.534 µM in test [8] and 1.45 µM in test [9]. In addition, the TGI in test [1] is 71.1 µM; in [2] it was 2.39 µM; in [3], 1.85 µM; in test [4], 6.42 µM; in [5] it was 2.45 µM; in [6], 8.05 µM. For the same molecule, the TGI was 4.56 µM in [7], 3.55 µM in [8] and 6.04 µM in test [9].

Turning to `O=C(Nc1cccc(-n2cc(-c3ccncc3)c(-c3ccc(O)c(Cl)c3)n2)c1)Nc1cccc(C(F)(F)F)c1`, the GI50 was 3.24 µM in test [1]; 1.97 µM in test [2]; 1.96 µM in [3]; 4.3 µM in test [4]; 1.02 µM in test [5]; 1.07 µM in test [6]. Besides, the values for the GI50 in test [7], in test [8] and in test [9] were 2.15 µM, 1.68 µM and 2.47 µM, respectively. In addition, the TGI in test [1] is above 100 µM; in test [2], 5.47 µM; in [3], 3.73 µM; in test [4], 37.5 µM; in test [5], 4.71 µM; in [6], 4.14 µM. Moreover, the TGI is 9.2 µM in test [7], 4.94 µM in test [8] and 5.98 µM in test [9].
